Reference: patent US20180116209A1, “Liposome Formulations” (priority 2012, published 2018)

Experiments:
Root-Knot larvae (J2) = test: Efficacy of nematicides (Oxamyl, Thiodicarb) in killing Root-Knot larvae (J2) in vitro; assay type: in vivo, M. incognita; conditions: compared with Oxamyl, 200 ug to 10 mg
Method: M. incognita eggs collected from tomato cultures by NaOC1 extraction (Hussey and Barker, 1973). Briefly, six to twelve week old infected tomato roots were cut into 1-2 segment. Root segments were shacked vigorously in 200 ml of a 0.5% Na O Cl solution for 4 min. Then, the Na O Cl solution was passed quickly through a 200-mesh (75-um), nested over a 500-mesh sieve to collect freed eggs. The a 500-mesh sieve with eggs was quickly placed under a stream of cold water to remove residual Na O Cl and rinsed several times. About 50 ml aqueous suspension of eggs was collected and number of eggs per unit volume will be counted. The egg suspension was allowed to sit at room temperature for 4 days. The hatching juveniles were collected and used in the subsequent experiments.
Determine the efficient concentration of nematicides (Oxamyl and Thidiocarb) that kill or suppress Root-Knot Larvae.
M. incognita eggs collected from tomato cultures by NaOC1 extraction (Hussey & Barker, Plant Disease Reporter. 57:1025-1028 (1973)). Egg suspension was incubated at room temperature until larvae were hatched (4-5 days). The juveniles (J2) were counted and evaluated for activity/mobility for the duration of the study. Four different concentrations of both nematicides (Oxamyl and Thiodicarb) were used to assess their efficacy in killing the nematodes. These were untreated control, 200 ug, 1 mg, 2 mg, and 10 mg. […]

[1] = system: nematodes in a dehydrated state; conditions: dry soils; cited from earlier work
plant roots = test: Abamectin applied to soil prior to planting: gall formation, root necrosis, root length; assay type: in vivo
Method: Abamectin at 5 μg or 1 μg was directly applied to soil prior to planting. Alternatively abamectin was loaded into liposomes at either 5 μg or 1 μg and applied to soil prior to planting. Gall formation was detected. […] Therefore, liposomal abamectin formulations enhance root length as compared to non-liposomal abamectin formulations.

Molecule: CS/C(C)=N\OC(=O)N(C)SN(C)C(=O)O/N=C(\C)SC [Larvin (Thiodicarb), Thiodicarb]
- concentration needed to kill Root-Knot (J2) (Root-Knot larvae (J2)): required higher concentration to kill Root-Knot (J2)

Molecule: CBr [methyl bromide]
- tolerated dose compared to active forms in moist soil [1]: 10 times the lethal dose

Molecule: abamectin [non-liposomal abamectin]
- root necrosis (plant roots; 1 μg applied to soil prior to planting, FIG. 4): most root necrosis followed by the non-liposomal abamectin 1 μg application
- gall formation (plant roots; 5 μg applied to soil prior to planting, FIG. 3): most gall formulation followed by the non-liposomal abamectin 5 μg application
